Assay results: patent US8039668B2, “Naphthalene-based inhibitors of anti-apoptotic proteins” (Burnham Institute for Medical Research, priority 2008, dated 2011)
Read-outs that look alike come from different tables or passages of the source.

Assays:
[1] = test system: BP3 human B-cell lymphoma cell line; assay: Annexin V-FITC and propidium iodide assay; assay type: cell-based; settings: for EC50: Table 3, Annexin V-FITC and propidium iodide assay, read-out: EC50 BP3
[2] = test system: human lymphoma RS11846 cell line; assay: Apoptosis, Annexin V-FITC and propidium iodide assay; assay type: cell-based; settings: Annexin V-FITC and propidium iodide assay, read-out: EC50 RS11846
Protocol: The apoptotic activity of the compounds against RS11846 cells was assessed by staining with Annexin V- and propidium iodide (PI). Lymphoma cell line, RS11846, was cultured in RPMI 1640 medium (Mediatech Inc., Herndon, Va. 20171) containing 10% fetal bovine serum (Mediatech Inc., Herndon, Va. 20171) and Penicillin/Streptomycin (Mediatech Inc., Herndon, Va. 20171). […] The percentage of viable cells was determined by FITC-Annexin V- and propidium iodide (PI)-labeling, using an Apoptosis Detection kit (BioVision Inc.), and analyzing stained cells by flow cytometry (FACSort; Bectin-Dickinson, Inc.; Mountain View, Calif.). Cells that were annexin-V-negative and PI-negative were considered viable.

PC3ML cells = assay: Cell viability, ATP-LITE assay; assay type: cell-based, human; settings: Table 3, ATP-LITE assay, heading: EC50 PC3ML, read-out: EC50 PC3ML
Method in brief: (§1)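 Human cancer lines were seeded at 2000 (H460, H1299), 3000 (PC3) or 10,000 (RS11846) cells/well in F12 or RPMI1640 with 5% FBS. Compounds were added in 0.1% DMSO 24 h after seeding. Viability was read by ATP-LITE luminescence after 72 h and normalized to DMSO controls.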

H1299 cell line = assay: Cell viability, ATP-LITE assay; assay type: cell-based, human; settings: for EC50: Table 3, ATP-LITE assay, read-out: EC50 H1299
Method in brief: as §1

BCL-XL [3] = biological target: T1, BCL-XL (Homo sapiens, UniProt Q07817); assay: 1D 1H-NMR binding assay; set-up: key to 1D-^1H NMR: +++, Very Active; ++, Active; +, Mild; −, Weak; settings: for 1D-^1H NMR: Table 3, BCL-XL 25 μM, compound 200 μM
Protocol: By observing the aliphatic region of the spectra, binding could be readily detected due to chemical shift changes in active site methyl groups of Ile, Leu, Thr, Val or Ala (region between −0.8 and 0.3 ppm). All experiments were performed with a 600 MHz spectrometer Bruker Avance 600 equipped with four rf channels and z-axis pulse-field gradients.
Target sequence in this assay (Q07817 whole entry): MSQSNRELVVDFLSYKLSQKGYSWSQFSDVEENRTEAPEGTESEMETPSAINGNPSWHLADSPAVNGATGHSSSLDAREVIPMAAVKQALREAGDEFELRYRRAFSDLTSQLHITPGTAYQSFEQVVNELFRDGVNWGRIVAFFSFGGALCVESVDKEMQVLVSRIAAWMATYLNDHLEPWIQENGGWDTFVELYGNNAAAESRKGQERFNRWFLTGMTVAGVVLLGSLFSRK

[4] = test system: H460 human lung cell line; assay: Cell viability, ATP-LITE assay; assay type: cell-based; settings: for EC50: Table 3, ATP-LITE assay, read-out: EC50 H460
Method in brief: as §1

BCL-2 transgenic mice = assay: Oral efficacy study in BCL-2 transgenic mice, QDx5 for 3 weeks; settings: low dose 0.06 mmol/kg oral
Protocol: The volume of administration was 10 ml/kg, i.e., typically 0.2 mL per 20 gm mouse. […] Age-matched, sex-matched mice were typically dosed 5 times weekly, using a regiment of daily dosing 5 consecutive days (Monday through Friday), followed by resting for 2 days, before resuming dosing. […] At conclusion of treatments, mice were sacrificed via intra-peritoneal (i.p.) injection of 0.7 ml of Avertin and whole blood was collected into Yellow-Top Serum Separator tubes (Becton Dickinson Vacutainer Systems Becton Dickinson and Company, Franklin Lakes, N.J. 07417-1885). Spleens were removed and weighed.
Age-matched and sex-matched BCL-2 transgenic mice were used for efficacy studies. BCL-2 transgenic mice spontaneously developed low grade B-cell lymphoma as characterized by splenomegaly, as a function of time. In BCL-2 transgenic mice, the disease progression can be divided into two stages; at the first stage, the disease is characterized by splenomegaly as a result of expansion of B-cells in spleen due to over-expressed BCL-2 in B6 mice, and at the second stage, another genetic hit(s) may strike, resulting in disseminated lymphoma as characterized by bulky lymphadenopathy as well as splenomegaly.
In this study, BCL-2 transgenic mice at the first stage were used for this efficacy study. […] At conclusion of treatment, BCL-2 transgenic mice were sacrificed via intraperitoneal injection of 0.7 ml of avertin (anesthetic solution) and spleen was removed and weighed. Splenocytes were isolated by the use of mouse erythrocyte lysing kit (RD Systems). Total splenocyte count was determined by trypane blue exclusion assays. % B-cell count was determined by FACS analysis after staining cells with CD-5, a B-cell marker.

B6Bcl-2 transgenic mice = settings: for Tox: Bcl-2 transgenic mouse, single ip injection 72 μmol/kg
Method in brief: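 B6 line BCL-2 transgenic mice (human BCL-2 fused to IgH locus/enhancer, Balb/c background) sacrificed 24 h post-treatment by lethal i.p. Avertin. Spleen removed and weighed, fixed 3 days in z-FIX for H&E and TUNEL histology.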

Bfl-1 = biological target: T2, Bfl-1 (Homo sapiens, UniProt Q16548); assay: Competitive fluorescence polarization assay (FPA); assay type: binding
T2 sequence (Q16548 1-175): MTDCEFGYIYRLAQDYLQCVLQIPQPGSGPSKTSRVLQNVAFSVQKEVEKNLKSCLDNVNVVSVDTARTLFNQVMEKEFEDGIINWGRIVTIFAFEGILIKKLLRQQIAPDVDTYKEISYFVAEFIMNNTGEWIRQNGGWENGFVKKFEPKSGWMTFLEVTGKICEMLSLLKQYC

[5] = Liver microsomal stability; assay type: in vitro ADME, rat; settings: Table 6; rat liver microsomes, 1 h
Description: Liver Microsomal Stability.

[6] = test system: Bax/Bak double knockout mouse embryonic fibroblast cells (MEF/DKO); assay: FITC-Annexin V/PI cytotoxicity in Bax/Bak double knockout cells; assay type: cell-based; settings: 10 μM
Protocol: MEF/WT and MEF/DKO cells were seeded in 24-well plate at a seeding density of half a million per well (in 1 ml of DMEM medium supplemented by 10% FCS). […] On the following day, floating cells were pooled with adherent cells harvested after brief incubation with 0.25% Trypsin/EDTA solution (Gibco/In-Vitrogen Inc.). Cells were centrifuged and supernatant was discarded, and cell pellet was re-suspended with 0.2 ml of Annexin-V binding buffer, followed by addition of 1 μl Annexin-FITC and 1 μl PI (propidium iodide). The percentage of viable cells was determined by a 3-color FACSort instrument and data analyzed by Flow-Jo program, scoring Annexin V-negative, PI-negative as viable cells.

Mcl-1 = Mcl-1 (Homo sapiens, UniProt Q07820); assay: Competitive fluorescence polarization assay (FPA), Bim BH3 peptide; assay type: binding
[7] = Chemical stability of solid compounds at room temperature (HPLC, LCMS); settings: in air, Apogossypol in the absence of ascorbic acid
Description: The stability of compound was monitored using a combination of HPLC and LCMS.

BCL-XL [8] = biological target: T1, BCL-XL; assay: Competitive fluorescence polarization assay (FPA), Bak BH3 peptide; assay type: binding; set-up: 100 nM GST-BCL-XL ΔTM protein; settings: read-out: IC50 FPA Bcl-XL
Method in brief: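 100 nM GST-BCL-XL ΔTM preincubated with compound in PBS pH 7.4 for 10 min at room temperature, then FITC-Bak BH3 peptide added. Polarization read after 10 min. IC50 from sigmoidal dose-response fit; mean ± SE of three independent experiments.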
Target sequence in this assay (Q07817 1-209 limits assumed): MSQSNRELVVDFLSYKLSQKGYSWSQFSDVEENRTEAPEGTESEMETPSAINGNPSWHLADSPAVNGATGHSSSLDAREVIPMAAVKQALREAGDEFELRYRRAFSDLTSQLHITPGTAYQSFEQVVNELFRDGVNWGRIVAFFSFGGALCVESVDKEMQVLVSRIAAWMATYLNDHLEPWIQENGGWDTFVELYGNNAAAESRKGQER

Bcl-2 = Bcl-2 (Homo sapiens, UniProt P10415); assay: Competitive fluorescence polarization assay (FPA), Bim BH3 peptide; assay type: binding
Plasma stability = assay type: in vitro ADME, rat; settings: Table 6; rat plasma, 1 h
Protocol: Plasma Stability. A 20 μL aliquot of a 10 mM solution in DMSO of the test compound was added to 2.0 mL of heparinized rat plasma (Lampire, P1-150N) to obtain a 100 μM final solution. The mixture was incubated for 1 h at 37.5° C. Aliquots of 100 μL were taken (0, 30 min, 1 h) and diluted with 200 μL of MeOH containing internal standard.

BCL-XL [9] = biological target: T1, BCL-XL; assay: Isothermal titration calorimetry (ITC); assay type: binding
Protocol: Titrations were performed using a VP-ITC or ITC200 calorimeter from Microcal (Northampton, Mass.). BCL-XL was used at concentrations between 25 and 100 μM in 20 mM sodium phosphate buffer (pH 7.4) and 5-10% DMSO. Titrants were used at concentrations 10-15 fold of that of the protein in the same buffer. Titrations were carried out at 25° C. Data were analyzed using Microcal Origin software provided by the ITC manufacturer (Microcal, Northampton, Mass.).
Target sequence in this assay (Q07817 whole entry): as the sequence (Q07817 whole entry) above

Chain of Bcl-2 (P10415 whole entry): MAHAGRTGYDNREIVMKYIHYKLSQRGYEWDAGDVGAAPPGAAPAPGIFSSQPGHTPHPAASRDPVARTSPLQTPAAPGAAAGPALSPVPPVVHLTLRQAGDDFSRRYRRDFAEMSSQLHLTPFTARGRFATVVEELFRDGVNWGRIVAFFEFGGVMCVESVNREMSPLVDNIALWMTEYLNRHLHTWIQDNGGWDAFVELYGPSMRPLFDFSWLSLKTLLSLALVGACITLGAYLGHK
Chain of Mcl-1 (Q07820 whole entry): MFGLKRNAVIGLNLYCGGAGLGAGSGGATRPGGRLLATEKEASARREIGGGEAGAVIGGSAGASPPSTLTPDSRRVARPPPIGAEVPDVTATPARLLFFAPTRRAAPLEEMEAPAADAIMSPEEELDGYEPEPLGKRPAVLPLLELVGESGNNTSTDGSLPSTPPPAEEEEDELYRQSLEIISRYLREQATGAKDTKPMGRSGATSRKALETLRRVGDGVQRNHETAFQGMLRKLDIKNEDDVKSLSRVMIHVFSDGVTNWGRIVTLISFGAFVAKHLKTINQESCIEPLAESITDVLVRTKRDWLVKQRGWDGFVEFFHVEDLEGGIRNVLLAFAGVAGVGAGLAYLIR

Compound: CC(=O)O.Cc1cc2c(C(C)C)c(O)c(O)c(C=O)c2c(O)c1-c1c(C)cc2c(C(C)C)c(O)c(O)c(C=O)c2c1O [Gossypol, reference compound]
- EC50 ([1]; heading: EC50 BP3): 1420 nM
- EC50 ([2]; Table 3, heading: EC50 RS11846): 4200 nM
- EC50 (PC3ML cells): 3100 nM
- EC50 (H1299 cell line; heading: EC50 H1299): 6000 nM
- 1D-^1H NMR (BCL-XL [3]): +++
- 1D ^1H-NMR Binding Assay (BCL-XL) (BCL-XL [3]; Table 9): ++
- EC50 ([4]; heading: EC50 H460): 3000 nM
- shrinkage of spleen (BCL-2 transgenic mice): induced shrinkage of spleen to a considerable extent but not significantly
- tolerability (BCL-2 transgenic mice): well tolerated
- Tox (B6Bcl-2 transgenic mice): 2+
- percentage of maximum reduction in spleen weight (maximal biological activity) (B6Bcl-2 transgenic mice; single ip 72 μmol/kg, maximum shrinkage no more than 50%): 40%

Compound: CCc1ccc(CCNC(=O)c2c(O)c(O)cc3c(O)c(-c4c(C)cc5c(C(=O)NCCc6ccc(CC)cc6)c(O)c(O)cc5c4O)c(C)cc23)cc1 [Compound 8q, N^5,N^5′-bis(4-ethylphenethyl)-1,1′,6,6′,7,7′-hexahydroxy-3,3′-dimethyl-2,2′-binaphthyl-5,5′-dicarboxamide]
- IC50 (Bfl-1): 1300 nM
- Microsomal Stability (T = 1 h) [5]: 87%
- MEF/DKO cells killed [6]: 20-35%
- EC50 ([1]; Homo sapiens, B-cell): 200 nM
- IC50 ([1]; Homo sapiens, B-cell, read-out: IC50 inhibiting cell growth, BP3): 200 nM
- IC50 (Mcl-1): 590 nM
- EC50 ([2]; Homo sapiens): 3000 to 5800 nM
- EC50 ([2]; Homo sapiens, Table 3, heading: EC50 RS11846): 3000 nM
- EC50 (PC3ML cells; Homo sapiens, PC3-ML): 1700 nM
- EC50 (H1299 cell line; Homo sapiens, NCI-H1299): 360 nM
- IC50 (H1299 cell line; Homo sapiens, NCI-H1299, read-out: IC50 cell inhibition, H1299): 360 nM
- degraded after 60 days at room temperature [7]: 10%
- 1D-^1H NMR (BCL-XL [3]): +++
- EC50 ([4]; Homo sapiens, NCI-H460): 400 nM
- IC50 ([4]; Homo sapiens, NCI-H460, read-out: IC50 inhibiting cell growth, H460): 400 nM
- IC50 (BCL-XL [8]): 930 nM
- IC50 (Bcl-2): 670 nM
- Plasma stability (T = 1 h) (Plasma stability): 94%
- Kd (BCL-XL [9]): 120 nM
- Tox (B6Bcl-2 transgenic mice): 4+
